In patent publication US20080300298A1, “Honokiol Derivates For the Treatment of Proliferative Disorders” (priority 2005, published 2008) one finds TUNEL positive cells data, which are given here for one molecule.

The subject of one experiment is MM.1S cells. The experiment in a line: TUNEL assay. It counts as cell-based, human. Particulars: 10 ug/ml, 48 h. Here is the method: (§1) Assessment of HNK-induced cytotoxicity against patient MM cells: […] A CD38^high fraction enriched for MM cells was determined in side and forward scatter panel in each case. The expression of CD138 on gated cells was also evaluated. After HNK-treatment for 48 h, cells were harvested and percentage of CD38^high cells with or without HNK-treatment was evaluated. Cell cycle analysis: MM cells cultured with HNK were harvested, fixed with 70% ethanol, and pretreated with 250 μg/mL of RNAse (Sigma, St Louis, Mo.). Cells were stained with propidium iodide (PI; 50 μg/mL; Sigma, St Louis, Mo.), and cell cycle profile was determined by using the program M software on an EPICS XL flow cytometer (Beckman Coulter, Hialeah, Fla.). […] Fluorescence intensity of TUNEL and APO 2.7 staining was determined using on EPICS XL flow cytometer. Cytotoxicity was determined by trypan blue exclusion assay. […] Cell growth and induction of apoptosis were determined both by colorimetric assay and now cytometric detection of APO2.7 after 48 h treatment. […] Proliferation of MM cells was then assessed by [^3H]-thymidine uptake. […] DNA synthesis was measured by [^3H]-thymidine uptake. […] Angiogenesis assay: The anti-angiogenic effect of HNK was determined using an In Vitro Angiogenesis Assay Kit (Chemicon, Temecula, Calif.). […] After 6 h, tube formation by endothelial cells was evaluated. […]

The next experiment deals with RPM18226 cells. As to the kind of experiment: TUNEL assay. Particulars: RPM18226, 10 ug/ml, 48 h. The class given is cell-based, human. Here is the method:
as §1

As for `C=CCc1ccc(O)c(-c2ccc(O)c(CC=C)c2)c1` [HNK, Honokiol], the TUNEL positive cells turned out to be 38.2% with MM.1S cells and 41.5% in the experiment on RPM18226 cells.
